# Values of other authors in US6346251B1 (priority 1999, dated 2002).
# Tests used:
# cancer = conditions: Phase II testing
# [1] = test system: human epidermoid cells, virally infected with HSV-2
Structure (SMILES),hematologic toxicity (cancer),tumor response (cancer),"Trichothecene Concentrations, Protein Synthesis Inhibition 50% [1] [ng/mL]","Trichothecene Concentrations, Protein Synthesis Inhibition 80% (PIC80) [1] [ng/mL]","Trichothecene Concentrations, Protein Synthesis Inhibition 85% (PIC85) [1] [ng/mL]","Trichothecene Concentrations, Protein Synthesis Inhibition 90% (PIC90) [1] [ng/mL]",hyperactive protein synthesis inhibited [1] [%],"Trichothecene Concentrations, PIC100 max (human epidermoid cells) [ng/mL]",concentrations that did not reduce cell viability (human epidermoid cells),nontoxic zone (human epidermoid cells) [ng/mL],safe level (human epidermoid cells) [ng/mL]
CC(=O)OC[C@]12CCC(C)=C[C@H]1O[C@@H]1[C@H](O)[C@@H](OC(C)=O)[C@@]2(C)[C@]12CO2 [Anguidine],considerable hematologic toxicity,low tumor response,,,,,,,,,
CC(=O)OC[C@]12CCC(C)=C[C@H]1O[C@@H]1[C@H](O)[C@@H](OC(C)=O)[C@@]2(C)[C@]12CO2 [DAS],,,2.3,4.0,4.2,4.5,~99,200,up to 200 ng/ml,< 200,200
